# Assay results: US7259177B2, “Cycloalkylmethoxy-substituted acetic acid derivatives, processes for their preparation and their use as pharmaceuticals” (Sanofi-Aventis Deutschland GmbH, priority 2003, dated 2007)
# Where a name gives a salt, the structure may show the parent alone.
# Biological target: T1, human PPARα (Homo sapiens, UniProt Q07869)
# T1 construct: amino acids S167-Y468; expressed in transfected cells; host or cells: HEK (human embryo kidney) cells, stably transfected with pcDNA3 carrying the fusion construct
# T1 sequence (Q07869 167-468): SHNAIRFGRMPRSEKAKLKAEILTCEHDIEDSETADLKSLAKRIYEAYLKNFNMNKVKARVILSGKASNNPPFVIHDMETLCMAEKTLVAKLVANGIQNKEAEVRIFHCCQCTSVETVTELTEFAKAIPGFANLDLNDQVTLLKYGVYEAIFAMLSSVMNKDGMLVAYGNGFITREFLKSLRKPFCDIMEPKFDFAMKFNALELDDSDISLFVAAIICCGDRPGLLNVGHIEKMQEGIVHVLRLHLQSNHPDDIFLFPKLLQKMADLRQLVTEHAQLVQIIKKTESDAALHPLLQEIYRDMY
# Experiment: Cellular PPARalpha assay (stably transfected HEK PPARalpha reporter cell line, luciferase)
# Format: cell-based
# Details: 24 h incubation, luciferase readout
# Description: (A) Determination of EC50 Values of PPAR Agonists in the Cellular PPARalpha Assay
# The potency of substances that bind to human PPARα and activate in an agonistic manner is analyzed using a stably transfected HEK cell line (HEK=human embryo kidney) which is referred to here as PPARalpha reporter cell line. It contains two genetic elements, a luciferase reporter element (pΔM-GAL4-Luc-Zeo) and a PPARalpha fusion protein (GR-GAL4-humanPPARα-LBD) that mediates expression of the luciferase reporter element depending on a PPARalpha ligand. The stably and constitutively expressed fusion protein GR-GAL4-humanPPARalpha-LBD binds in the cell nucleus of the PPARalpha reporter cell line via the GAL4 protein portion to the GAL4 DNA binding motifs 5′-upstream of the luciferase reporter element which is integrated in the genome of the cell line. There is only little expression of the luciferase reporter gene without addition of a PPARalpha ligand if fatty acid-depleted fetal calf serum (cs-FCS) is used in the assay. PPARα ligands bind and activate the PPARα fusion protein and thereby bring about expression of the luciferase reporter gene. The luciferase which is formed can be detected by means of chemiluminescence via an appropriate substrate.
# The PPARalpha reporter cell line was prepared in 2 stages. Firstly, the luciferase reporter element was constructed and stably transfected into HEK cells. For this purpose, five binding sites of the yeast transcription factor GAL4 (each 5′-CGGAGTACTGTCCTCCGAG-3′ (SEQ ID NO:1)) were cloned in 5′-upstream of a 68 bp-long minimal MMTV promoter (Genbank Accession # V01175). The minimal MMTV promoter section contains a CCAAT box and a TATA element in order to enable efficient transcription by RNA polymerase II. The cloning and sequencing of the GAL4-MMTV construct took place in analogy to the description of Sambrook J. et. al. (Molecular cloning, Cold Spring Harbor Laboratory Press, 1989). Then the complete Photinus pyralis gene (Genbank Accession # M15077) was cloned in 3′-downstream of the GAL4-MMTV element. After sequencing, the luceriferase reporter element consisting of five GAL4 binding sites, MMTV promoter and luciferase gene was recloned into a plasmid which confers zeocin resistance in order to obtain the plasmid pΔM-GAL4-Luc-Zeo. This vector was transfected into HEK cells in accordance with the statements in Ausubel, F. M. et al. (Current protocols in molecular biology, Vol.1-3, John Wiley & Sons, Inc., 1995). […] In a second step, the PPARalpha fusion protein (GR-GAL4-humanPPARalpha-LBD) was introduced into the stable cell clone described. For this purpose, initially the cDNA coding for the N-terminal 76 amino acids of the glucocorticoid receptor (Genbank Accession # P04150) was linked to the cDNA section coding for amino acids 1-147 of the yeast transcription factor GAL4 (Genbank Accession # P04386). The cDNA of the ligand-binding domain of the human PPARalpha receptor (amino acids S167-Y468; Genbank Accession # S74349) was cloned in at the 3′-end of this GR-GAL4 construct. The fusion construct prepared in this way (GR-GAL4-humanPPARalpha-LBD) was recloned into the plasmid pcDNA3 (from Invitrogen) in order to enable constitutive expression therein by the cytomegalovirus promoter. This plasmid was linearized with a restriction endonuclease and stably transfected into the previously described cell clone containing the luciferase reporter element. The finished PPARalpha reporter cell line that contains a luciferase reporter element and constitutively expresses the PPARalpha fusion protein (GR-GAL4-human PPARalpha-LBD) was isolated by selection with zeocin (0.5 mg/ml) and G418 (0.5 mg/ml).
# The activity of PPARalpha agonists is determined in a 3-day assay described below: […]
row,EC50 [nM],Structure (SMILES)
1,0.07,Cc1ccc(-c2nc(CO[C@@H]3CCC[C@H](CSCC(=O)O)C3)c(C)o2)cc1 (racemic) [Example 22]
2,79,"Cc1ccc(-c2nc(COC3CCCC(CN[C@H](C(=O)O)C(C)C)C3)c(C)o2)cc1 (mixture of isomers) [Example 42, (S)-3-Methyl-2{[cis-3-(5-methyl-2-p-tolyloxazol-4-ylmethoxy)cyclohexyl-methyl]amino}butyric acid]"
3,12,"Cc1ccc(-c2nc(COC3CCCC(CN(Cc4ccccc4)[C@H](C(=O)O)C(C)C)C3)c(C)o2)cc1 (mixture of isomers) [Example 51, (S)-2-{benzyl-[cis-3-(5-methyl-2-p-tolyloxazol-4-ylmethoxy)-cyclohexylmethyl]amino}-3-methylbutyric acid trifluoroacetic acid salt]"
4,0.4,"CCc1oc(-c2ccc3ccccc3c2)nc1COC[C@@H]1CCC[C@H](COC(C)(C)C(=O)O)C1 (racemic) [Example 64, 2-[cis-3-(5-ethyl-2-(2-naphthyl)oxazol-4-yl-methoxymethyl)cyclohexylmethoxy]-2-methylpropionic acid]"
5,25,"Cc1ccc(-c2nc(CO[C@@H]3CCC[C@H](COC(Cc4ccccc4)C(=O)O)C3)c(C)o2)cc1 (relative stereo) [Example 4, 2-[cis-3-(5-methyl-2-p-tolyloxazol-4-ylmethoxy)cyclohexyl-methoxy]-3-phenylpropionic acid]"
6,4.3,"Cc1ccc(-c2nc(CO[C@@H]3CCC[C@H](COC4(C(=O)O)CCCC4)C3)c(C)o2)cc1 (relative stereo) [Example 9, 1-[cis-3-(5-Methyl-2-p-tolyloxazol-4-ylmethoxy)cyclohexylmethoxy]cyclo-pentanecarboxylic acid]"
7,0.4,"COc1cccc(-c2nc(CO[C@@H]3CCC[C@H](CCC(C(=O)O)C(C)C)C3)c(C)o2)c1 (relative stereo) [Example 74, 2-(2-{cis-3-[2-(3-methoxyphenyl)-5-methyloxazol-4-ylmethoxy]cyclohexyl}ethyl)-3-methylbutyric acid]"
8,1.8,"Cc1ccc(-c2nc(CO[C@H]3CCC[C@@H](COC(C)(C)C(=O)O)C3)c(C)o2)cc1 [Example 8a, 2-[(1R,3S)-3-(5-Methyl-2-p-tolyloxazol-4-ylmethoxy)cyclohexylmethoxy]-2-methylpropionic Acid]"
9,4,"Cc1oc(-c2ccc(C(F)(F)F)cc2)nc1COC1CCCC(COC(C)(C)C(=O)O)C1 [Example 16, 2-methyl-2-{(1R,3S)-cis-3-[5-methyl-2-(4-trifluoromethyl-phenyl)oxazol-4-ylmethoxy]cyclohexylmethoxy}propionic acid]"
10,0.3,"CCC(SCC1CCCC(OCc2nc(-c3ccc(C)cc3)oc2C)C1)C(=O)O (stereo not drawn) [Example 24, 2-[cis-3-(5-methyl-2-p-tolyloxazol-4-ylmethoxy)cyclohexylmethylsulfanyl]butyric acid]"
11,17,"CCCCCC(C(=O)O)[S+]([O-])CC1CCCC(OCc2nc(-c3ccc(C)cc3)oc2C)C1 (stereo not drawn) [Example 33, 2-[cis-3-(5-methyl-2-p-tolyloxazol-4-ylmethoxy)cyclohexylmethylsulfinyl]heptanoic acid]"
12,8.5,"CCCCCC(C(=O)O)S(=O)(=O)CC1CCCC(OCc2nc(-c3ccc(C)cc3)oc2C)C1 (stereo not drawn) [Example 38, 2-[cis-3-(5-methyl-2-p-tolyloxazol-4-ylmethoxy)cyclohexylmethylsulfonyl]heptanoic acid]"
